Data reported in patent publication USRE48335E1, “Polymyxin derivatives as antimicrobial compounds” (priority 2014, dated 2020).
In brackets after ≈: the same amount, converted by molar mass. Positions of bridges follow the written chain, without caps; N, C: chain ends. Non-standard residues stand in square brackets, D forms with d. Residues, ends and D or L forms follow the SMILES beside them. *: point of attachment. Heptanoyl(6-Me) = CC(C)CCCCC(=O)*; Nonanoyl = CCCCCCCCC(=O)*; X1 = CC[C@H](C)CCCCC(=O)*; Heptanoyl = CCCCCCC(=O)*; Dab = NCC[C@H](N)C(=O)O; Abu = CC[C@H](N)C(=O)O; Dap = NC[C@H](N)C(=O)O

What was measured:
[1] = system: Enterobacter cloacae
Method in brief: (§1)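 Broth microdilution, CAMHB, per CLSI M100-S18; compounds as TFA salts; polymyxin B (sulphate) control; read-out MIC.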

[2] = system: Klebsiella pneumoniae
Method in brief: as §1

[3] = system: Pseudomonas aeruginosa
Method in brief: as §1

[4] = system: Acinetobacter baumannii
Method in brief: as §1

[5] = system: P. aeruginosa ATCC 27853; test: In vivo efficacy in mouse blood infection model (neutropenic Swiss mice); details: compound, free base 4 mg/kg intravenously 2 h after inoculation, blood at 4 h
Method in brief: (§2)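 Activity expressed as Δlog10 CFU/mL blood, treated minus saline control, 4 h after a single 4 mg/kg (free base) i.v. dose given 2 h post-infection. Bloodstream infection from i.v. early log-phase inoculum in Swiss mice made neutropenic by i.p. cyclophosphamide on days −4 (150 mg/kg) and −1 (100 mg/kg).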

[6] = system: K. pneumoniae FADDI-KP032; test: as above; details: compound, free base 4 mg/kg intravenously 2 h after inoculation, blood at 4 h
Method in brief: as §2

[7] = system: A. baumannii ATCC 19606; test: as above; details: compound, free base 4 mg/kg intravenously 2 h after inoculation, blood at 4 h
Method in brief: as §2

| Compound | Minimum inhibitory concentration, Ec FADDI-EC001 [1] | Minimum inhibitory concentration, Ec FADDI-EC003 [1] | Minimum inhibitory concentration, Ec FADDI-EC006 [1] | MIC [2] | MIC [3] | Minimum inhibitory concentration, Pa ATCC 27853 [3] | Minimum inhibitory concentration, Pa FADDI-PA022 [3] | MIC [4] | Δ log (Treated-Control at 4 h) [5] | Δ log (Treated-Control at 4 h) [6] | Δ log (Treated-Control at 4 h) [7] | Minimum inhibitory concentration (MIC), Ec FADDI-EC001 [1] | Minimum inhibitory concentration (MIC), Ec FADDI-EC003 [1] | Minimum inhibitory concentration (MIC), Ec FADDI-EC006 [1] | Minimum inhibitory concentration (MIC), Pa ATCC 27853 [3] | Minimum inhibitory concentration (MIC), Pa FADDI-PA022 [3] | Minimum inhibitory concentration (MIC), Pa FADDI-PA025 [3] | Minimum inhibitory concentration (MIC), Ab ATCC 17978 [4] | Minimum inhibitory concentration (MIC), Ab ATCC 19606 [4] | Minimum inhibitory concentration (MIC), Ab FADDI-AB034 [4] | further results |
| --- | --- | --- | --- | --- | --- | --- | --- | --- | --- | --- | --- | --- | --- | --- | --- | --- | --- | --- | --- | --- | --- |
| CCCCCCC(=O)N[C@@H](CCN)C(=O)N[C@H](C(=O)N[C@@H](CN)C(=O)N[C@H]1CCNC(=O)[C@H]([C@@H](C)O)NC(=O)[C@H](CCN)NC(=O)[C@H](CCN)NC(=O)[C@H](CC)NC(=O)[C@@H](Cc2ccccc2)NC(=O)[C@H](CCN)NC1=O)[C@@H](C)O [Compound 131] (Heptanoyl-[Dab]T[Dap][Dab][Dab][dF][Abu][Dab][Dab]T; lactam 4-C) | <0.125 mg/L | <0.125 mg/L | <0.125 mg/L | <0.125 mg/L | 0.5 mg/L (≈ 0.441 µM) | 0.5 mg/L (≈ 0.441 µM) | 2 mg/L (≈ 1.76 µM) | 0.25 mg/L (≈ 0.221 µM) | −3.80 log10 CFU/mL | −3.44 log10 CFU/mL | −1.75 log10 CFU/mL |  |  |  |  |  |  |  |  |  | Minimum inhibitory concentration, Pa FADDI-PA025 [3]: 4 mg/L (≈ 3.53 µM); Minimum inhibitory concentration, Ab A ATCC 17978 [4]: 0.25 mg/L (≈ 0.221 µM); Minimum inhibitory concentration, Ab ATCC 19606 [4]: 0.25 mg/L (≈ 0.221 µM); Minimum inhibitory concentration, Ab FADDI-AB034 [4]: 0.25 mg/L (≈ 0.221 µM) |
| CCCCCCCCC(=O)N[C@@H](CCN)C(=O)N[C@H](C(=O)N[C@@H](CN)C(=O)N[C@H]1CCNC(=O)[C@H]([C@@H](C)O)NC(=O)[C@H](CCN)NC(=O)[C@H](CCN)NC(=O)[C@H](C)NC(=O)[C@@H](CC(C)C)NC(=O)[C@H](CCN)NC1=O)[C@@H](C)O [Compound 132] (Nonanoyl-[Dab]T[Dap][Dab][Dab][dL]A[Dab][Dab]T; lactam 4-C) | 0.25 mg/L (≈ 0.225 µM) | <0.125 mg/L | <0.125 mg/L | 0.25 mg/L (≈ 0.225 µM) | 0.5 mg/L (≈ 0.449 µM) | 0.5 mg/L (≈ 0.449 µM) | 1 mg/L (≈ 0.898 µM) | 0.5 mg/L (≈ 0.449 µM) | −4.39 log10 CFU/mL | −3.16 log10 CFU/mL | −1.58 log10 CFU/mL |  |  |  |  |  |  |  |  |  | Minimum inhibitory concentration, Pa FADDI-PA025 [3]: 4 mg/L (≈ 3.59 µM); Minimum inhibitory concentration, Ab A ATCC 17978 [4]: 0.5 mg/L (≈ 0.449 µM); Minimum inhibitory concentration, Ab ATCC 19606 [4]: 0.5 mg/L (≈ 0.449 µM); Minimum inhibitory concentration, Ab FADDI-AB034 [4]: 0.25 mg/L (≈ 0.225 µM) |
| CC[C@H](C)CCCCC(=O)N[C@@H](CCN)C(=O)N[C@H](C(=O)N[C@H](CO)C(=O)N[C@H]1CCNC(=O)[C@H]([C@@H](C)O)NC(=O)[C@H](CCN)NC(=O)[C@H](CCN)NC(=O)[C@H]([C@@H](C)O)NC(=O)[C@@H](CC(C)C)NC(=O)[C@H](CCN)NC1=O)[C@@H](C)O [Compound 150, polymyxin D1] (X1-[Dab]T[dS][Dab][Dab][dL]T[Dab][Dab]T; lactam 4-C) |  |  |  | 0.5 mg/L (≈ 0.437 µM) | 4 mg/L (≈ 3.5 µM) |  |  | 0.25 mg/L (≈ 0.218 µM) | −0.29 log10 CFU/mL | −3.77 log10 CFU/mL | −1.46 log10 CFU/mL | 0.5 mg/L (≈ 0.437 µM) | 0.5 mg/L (≈ 0.437 µM) | 0.5 mg/L (≈ 0.437 µM) | 4 mg/L (≈ 3.5 µM) | 4 mg/L (≈ 3.5 µM) | >32 mg/L | 0.25 mg/L (≈ 0.218 µM) | 0.25 mg/L (≈ 0.218 µM) | 0.25 mg/L (≈ 0.218 µM) |  |
| CC(C)CCCCC(=O)N[C@@H](CCN)C(=O)N[C@H](C(=O)N[C@H](CO)C(=O)N[C@H]1CCNC(=O)[C@H]([C@@H](C)O)NC(=O)[C@H](CCN)NC(=O)[C@H](CCN)NC(=O)[C@H]([C@@H](C)O)NC(=O)[C@@H](CC(C)C)NC(=O)[C@H](CCN)NC1=O)[C@@H](C)O [Compound 151, polymyxin D2] ({Heptanoyl(6-Me)}-[Dab]T[dS][Dab][Dab][dL]T[Dab][Dab]T; lactam 4-C) |  |  |  | 0.5 mg/L (≈ 0.442 µM) | 4 mg/L (≈ 3.54 µM) |  |  | 0.5 mg/L (≈ 0.442 µM) | −0.40 log10 CFU/mL | −4.71 log10 CFU/mL | −1.59 log10 CFU/mL | 0.25 mg/L (≈ 0.221 µM) | 0.25 mg/L (≈ 0.221 µM) | 0.25 mg/L (≈ 0.221 µM) | 4 mg/L (≈ 3.54 µM) | 4 mg/L (≈ 3.54 µM) | >32 mg/L | 0.25 mg/L (≈ 0.221 µM) | 0.5 mg/L (≈ 0.442 µM) | 0.5 mg/L (≈ 0.442 µM) |  |
| CC[C@H](C)CCCCC(=O)N[C@@H](CCN)C(=O)N[C@H](C(=O)N[C@@H](CCN)C(=O)N[C@H]1CCNC(=O)[C@H]([C@@H](C)O)NC(=O)[C@H](CCN)NC(=O)[C@H](CCN)NC(=O)[C@H]([C@@H](C)O)NC(=O)[C@@H](CC(C)C)NC(=O)[C@H](CCN)NC1=O)[C@@H](C)O [Compound 152, polymyxin M1] (X1-[Dab]T[Dab][Dab][Dab][dL]T[Dab][Dab]T; lactam 4-C) |  |  |  | 0.5 mg/L (≈ 0.432 µM) | 1 mg/L (≈ 0.864 µM) |  |  | 1 mg/L (≈ 0.864 µM) | −3.24 log10 CFU/mL | −3.86 log10 CFU/mL | −1.61 log10 CFU/mL | 0.5 mg/L (≈ 0.432 µM) | 0.5 mg/L (≈ 0.432 µM) | 0.25 mg/L (≈ 0.216 µM) | 1 mg/L (≈ 0.864 µM) | 1 mg/L (≈ 0.864 µM) | 32 mg/L (≈ 27.6 µM) | 1 mg/L (≈ 0.864 µM) | 1 mg/L (≈ 0.864 µM) | 1 mg/L (≈ 0.864 µM) |  |
| CC(C)CCCCC(=O)N[C@@H](CCN)C(=O)N[C@H](C(=O)N[C@@H](CCN)C(=O)N[C@H]1CCNC(=O)[C@H]([C@@H](C)O)NC(=O)[C@H](CCN)NC(=O)[C@H](CCN)NC(=O)[C@H]([C@@H](C)O)NC(=O)[C@@H](CC(C)C)NC(=O)[C@H](CCN)NC1=O)[C@@H](C)O [Compound 153, polymyxin M2] ({Heptanoyl(6-Me)}-[Dab]T[Dab][Dab][Dab][dL]T[Dab][Dab]T; lactam 4-C) |  |  |  | 0.25 mg/L (≈ 0.219 µM) | 0.5 mg/L (≈ 0.437 µM) |  |  | 2 mg/L (≈ 1.75 µM) | −2.73 log10 CFU/mL | −3.59 log10 CFU/mL | −1.26 log10 CFU/mL | 0.25 mg/L (≈ 0.219 µM) | 0.25 mg/L (≈ 0.219 µM) | 0.5 mg/L (≈ 0.437 µM) | 0.5 mg/L (≈ 0.437 µM) | 4 mg/L (≈ 3.5 µM) | >32 mg/L | 2 mg/L (≈ 1.75 µM) | 2 mg/L (≈ 1.75 µM) | 1 mg/L (≈ 0.875 µM) |  |
